Source: PMC11555678, “Improved Broad Spectrum Antifungal Drug Synergies with Cryptomycin, a Cdc50-Inspired Antifungal Peptide” (ACS Infectious Diseases, 2024)
Like-named read-outs stand apart in the source and are kept apart here. Square brackets hold non-standard residues; d marks the D form. Peptide text beside a SMILES is read from it. * marks the point of attachment. Myristoyl = CCCCCCCCCCCCCC(=O)*; Orn = NCCC[C@H](N)C(=O)O

Experiments:
Cn crm1Δ = assay: microbe, parasite or virus in culture; format: cell-based, Cryptococcus neoformans; settings: YPD + 0 mM Ca2+, 37 °C, 48 h
Experimental: (§1) Previous studies have shown that modifying microbiological media with salts such as CaCl2 can have a drastic effect on the growth of fungi and their responses to antifungals.[19],[35] In the case of CaCl2, the divalent cation, Ca^2+, is involved in fungal cell stress response. To understand how the peptide activity may involve calcium and stress response, the MICs of KKOO, KKOO-NH2, FLC, and CAS were assessed as a function of the calcium concentration in liquid YPD media. It was observed that calcium enrichment completely desensitized the wild-type strain to KKOO and KKOO-NH2, Tables 7 and 8, respectively. Effects of calcium enrichment on the susceptibility of Cryptococcus to CAS similar to literature values were recorded, Supporting Information, Table S7.[35]
(§2) All microdilution assays with fungi were carried out in accordance with CLSI protocols from M27 for yeasts and M38 for filamentous fungi, respectively, unless otherwise specified.[64],[65] Briefly, 96-well plates were charged with RPMI1640 media, with operating volume in the first column, 200 μL, and half operating volume, 100 μL, in the remaining wells. Drug stock solution in DMSO was aliquoted into the first well in each row. Half of the volume in the dosed well was serially diluted 2-fold until column 11. Column 11 was used as the negative growth control, and column 12 was used as the positive growth control. ON yeast cultures in YPD were washed twice in DD-H2O, resuspended in PBS, and adjusted to 5000 cfu/mL in RPMI. The 96-well plate was inoculated with 100 μL aliquots of cell suspension per well. Plates were incubated at 37 °C for 2 days.

Cn apt1Δ = assay: microbe, parasite or virus in culture; format: cell-based, Cryptococcus neoformans; settings: for MIC: 37 °C, 48 h
Experimental: as §1, §2

Cn Crm1-oe = assay: microbe, parasite or virus in culture; format: cell-based, Cryptococcus neoformans; settings: YPD + 0 mM Ca2+, 37 °C, 48 h
Experimental: as §1, §2

Cn H99 = assay: microbe, parasite or virus in culture; format: cell-based, Cryptococcus neoformans; settings: for MIC: 37 °C, 48 h
Experimental: as §1
In order to control for the effects of enriching YPD with a divalent cation, MICs and ROS production were also measured as a function of the MgCl2 supplement at the same millimolar concentrations of cation as in the CaCl2-modified experiments. […] No peptide susceptibility changes were observed against Cn cdc50Δ in magnesium-enriched media, Table S9. ROS production in H99 induced by peptide exposure was inhibited after 30 min of treatment in the magnesium-enriched condition, similar to the levels observed in the calcium-enriched media at 16 μg/mL KKOO-NH2, Figure S1. […] The link between peptide activity and calcium homeostasis may be vital in understanding precisely how the peptide kills fungal cells and requires more research to elucidate.
as §2

Cg FKS1 S629P = assay: Drug synergy (MIC in peptide-supplemented media); format: cell-based, Candida glabrata; settings: RPMI1640, 37 °C, 48 h
Experimental: as §2
(§3) To assess drug synergy, the initial media charged to the plate contained the peptide at twice the final operating concentration; the remaining processing steps were identical to the MIC experiment. Upon addition of 100 μL of inoculant, the final operating concentration was achieved. Control MIC plates were prepared alongside drug synergy plates to account for the day-to-day variability in any individual MIC. FIC index is computed using eq 1. All MIC assays and drug synergy assays were completed with two technical replicates per 96-well plate and a minimum of two biological replicates per drug combination. If a difference in MIC between the two technical replicates on the plate were observed, only the higher concentration was reported as the MIC to reduce the possibility of type 1 error (false positive) [drawing 1] 1

Cg FKS2 S663P = assay: Drug synergy (MIC in peptide-supplemented media); format: cell-based, Candida glabrata; settings: RPMI1640, 37 °C, 48 h
Experimental: as §2, §3

C. neoformans H99 = format: cell-based, Cryptococcus neoformans; settings: for MIC of antifungal in combination with (FITC)KKOO / MIC of antifungal in combination with KKOO / MIC of antifungal in combination with KKOO-NH2: RPMI1640, 37 °C; for MIC of antifungal in combination with KKOO / MIC of antifungal in combination with KKOO-NH2: 48 h
Experimental: as §2, with “Plates were incubated at 37 °C for 2 days.” left out
as §3

Row | SMILES | MIC of antifungal in combination with KKOO (Cg FKS1 S629P; +0 μg/mL KKOO (control)) | MIC of antifungal in combination with KKOO-NH2 (Cg FKS1 S629P; +0 μg/mL KKOO-NH2 (control)) | MIC of antifungal in combination with KKOO-NH2 (Cg FKS1 S629P; +1 μg/mL KKOO-NH2) | MIC of antifungal in combination with KKOO (Cg FKS1 S629P; +1 μg/mL KKOO) | MIC of antifungal in combination with KKOO-NH2 (Cg FKS1 S629P; +2 μg/mL KKOO-NH2) | MIC of antifungal in combination with KKOO (Cg FKS1 S629P; +2 μg/mL KKOO) | MIC of antifungal in combination with KKOO-NH2 (Cg FKS1 S629P; +4 μg/mL KKOO-NH2) | MIC of antifungal in combination with KKOO (Cg FKS1 S629P; +4 μg/mL KKOO) | MIC of antifungal in combination with KKOO (Cg FKS2 S663P; +0 μg/mL KKOO (control)) | MIC of antifungal in combination with KKOO-NH2 (Cg FKS2 S663P; +0 μg/mL KKOO-NH2 (control)) | MIC of antifungal in combination with KKOO-NH2 (Cg FKS2 S663P; +1 μg/mL KKOO-NH2) | MIC of antifungal in combination with KKOO (Cg FKS2 S663P; +1 μg/mL KKOO) | MIC of antifungal in combination with KKOO-NH2 (Cg FKS2 S663P; +2 μg/mL KKOO-NH2) | MIC of antifungal in combination with KKOO (Cg FKS2 S663P; +2 μg/mL KKOO) | MIC of antifungal in combination with KKOO-NH2 (Cg FKS2 S663P; +4 μg/mL KKOO-NH2) | MIC of antifungal in combination with KKOO (Cg FKS2 S663P; +4 μg/mL KKOO) | MIC of antifungal in combination with (FITC)KKOO (C. neoformans H99; +0 μg/mL (FITC)KKOO) | MIC of antifungal in combination with KKOO (C. neoformans H99; +0 μg/mL KKOO (control)) | MIC of antifungal in combination with KKOO-NH2 (C. neoformans H99; +0 μg/mL KKOO-NH2 (control)) | MIC of antifungal in combination with KKOO-NH2 (C. neoformans H99; +1 μg/mL KKOO-NH2) | further results
1 | CCCCCCCCCCCCCC(=O)N[C@@H](Cc1c[nH]c2ccccc12)C(=O)NCC(=O)NCC(=O)N[C@H](C(=O)N[C@@H](CCCN)C(=O)N[C@@H](CCCN)C(=O)N[C@@H](CC(N)=O)C(=O)N[C@@H](Cc1ccc(O)cc1)C(=O)N[C@@H](C)C(N)=O)[C@@H](C)CC [KKOO-NH2] (Myristoyl-WGGI[Orn][Orn]NYA-NH2) |  |  |  |  |  |  |  |  |  |  |  |  |  |  |  |  |  |  |  |  | MIC (Cn crm1Δ): 4 µg/mL; MIC (Cn apt1Δ; YPD + 0 mM Ca2+): 4 µg/mL; increase of MIC (Cn apt1Δ; YPD +0 to +20 mM CaCl2): 32 fold; MIC (Cn apt1Δ; YPD + 2.5 mM Ca2+): 16 µg/mL; MIC (Cn apt1Δ; YPD + 5 mM Ca2+): 64 µg/mL; MIC (Cn apt1Δ; YPD + 10 mM Ca2+): 64 µg/mL; MIC (Cn Crm1-oe): 4 µg/mL; MIC (Cn H99; YPD + 0 mM Ca2+): 8 µg/mL; MIC (Cn H99; YPD + 0 mM Mg2+): 8 µg/mL; increase of MIC (Cn H99; YPD +0 to +2.5 mM CaCl2): 16 fold; increase of MIC (Cn H99; YPD +0 to +20 mM MgCl2): 4 fold; MIC (Cn H99; YPD + 2.5 mM Ca2+): 128 µg/mL; MIC (Cn H99; YPD + 2.5 mM Mg2+): 8 µg/mL; MIC (Cn H99; YPD + 5 mM Ca2+): >128 µg/mL; MIC (Cn H99; YPD + 5 mM Mg2+): 16 µg/mL; MIC (Cn H99; YPD + 10 mM Ca2+): >128 µg/mL; MIC (Cn H99; YPD + 10 mM Mg2+): 16 µg/mL; MIC (Cn H99; YPD + 20 mM Ca2+): >128 µg/mL; MIC (Cn H99; YPD + 20 mM Mg2+): 32 µg/mL
2 | CCC(C)n1ncn(-c2ccc(N3CCN(c4ccc(OCC5COC(Cn6cncn6)(c6ccc(Cl)cc6Cl)O5)cc4)CC3)cc2)c1=O (stereo not drawn) [ITR, itraconazole] | 0.125 µg/mL | 0.062 µg/mL | 0.031 µg/mL | 0.062 µg/mL | 0.016 µg/mL | 0.031 µg/mL | 0.008 µg/mL | 0.016 µg/mL | 0.031 µg/mL | 0.031 µg/mL | 0.016 µg/mL | 0.016 µg/mL | 0.004 µg/mL | 0.016 µg/mL | 0.002 µg/mL | 0.556 µg/mL | 0.125 µg/mL | 0.125 µg/mL | 0.125 µg/mL | 0.031 µg/mL | MIC of antifungal in combination with KKOO (C. neoformans H99; +1 μg/mL KKOO): 0.062 µg/mL; MIC of antifungal in combination with KKOO-NH2 (C. neoformans H99; +2 μg/mL KKOO-NH2): 0.016 µg/mL; MIC of antifungal in combination with KKOO (C. neoformans H99; +2 μg/mL KKOO): 0.016 µg/mL; MIC of antifungal in combination with (FITC)KKOO (C. neoformans H99; +4 μg/mL (FITC)KKOO): 0.062 µg/mL; MIC of antifungal in combination with KKOO-NH2 (C. neoformans H99; +4 μg/mL KKOO-NH2): 0.008 µg/mL; MIC of antifungal in combination with KKOO (C. neoformans H99; +4 μg/mL KKOO): 0.016 µg/mL; MIC of antifungal in combination with (FITC)KKOO (C. neoformans H99; +8 μg/mL (FITC)KKOO): 0.031 µg/mL; MIC of antifungal in combination with KKOO (C. neoformans H99; +8 μg/mL KKOO): 0.008 µg/mL; reduction of MIC of antifungal (C. neoformans H99; in the presence of 2 μg/mL KKOO-NH2, 48 h): 8 fold
3 | C[C@@H]1[C@H](O)[C@@H](C)/C=C/C=C/C=C/C=C/C=C/C=C/C=C/[C@H](O[C@@H]2O[C@H](C)[C@@H](O)[C@H](N)[C@@H]2O)C[C@@H]2O[C@](O)(C[C@@H](O)C[C@@H](O)[C@H](O)CC[C@@H](O)C[C@@H](O)CC(=O)O[C@H]1C)C[C@H](O)[C@H]2C(=O)O [AMB, amphotericin B] | 1 µg/mL | 0.5 µg/mL | 0.25 µg/mL | 0.5 µg/mL | 0.125 µg/mL | 0.25 µg/mL | 0.062 µg/mL | 0.25 µg/mL | 0.25 µg/mL | 0.25 µg/mL | 0.25 µg/mL | 0.25 µg/mL | 0.062 µg/mL | 0.125 µg/mL | 0.016 µg/mL | 0.031 µg/mL | 0.5 µg/mL | 0.5 µg/mL | 0.5 µg/mL | 0.062 µg/mL | MIC of antifungal in combination with KKOO (C. neoformans H99; +1 μg/mL KKOO): 0.25 µg/mL; MIC of antifungal in combination with KKOO-NH2 (C. neoformans H99; +2 μg/mL KKOO-NH2): 0.062 µg/mL; MIC of antifungal in combination with KKOO (C. neoformans H99; +2 μg/mL KKOO): 0.062 µg/mL; MIC of antifungal in combination with (FITC)KKOO (C. neoformans H99; +4 μg/mL (FITC)KKOO): 0.125 µg/mL; MIC of antifungal in combination with KKOO-NH2 (C. neoformans H99; +4 μg/mL KKOO-NH2): 0.031 µg/mL; MIC of antifungal in combination with KKOO (C. neoformans H99; +4 μg/mL KKOO): 0.062 µg/mL; MIC of antifungal in combination with (FITC)KKOO (C. neoformans H99; +8 μg/mL (FITC)KKOO): 0.062 µg/mL; MIC of antifungal in combination with KKOO (C. neoformans H99; +8 μg/mL KKOO): 0.062 µg/mL; reduction of MIC of antifungal (C. neoformans H99; in the presence of 1 μg/mL KKOO-NH2, 48 h): 8 fold; reduction of MIC of antifungal (C. neoformans H99; in the presence of 4 μg/mL (FITC)KKOO): 4 fold
